Assay results: ChEMBL document CHEMBL3885861, “Open TG-GATES”

Organism: Rattus norvegicus
Assay: Open TG-GATES - Regimen: Daily Repeat
Format: toxicity, organism-based, Sprague-Dawley
Set-up: regimen Daily Repeat, gender Male, age 6 weeks
Details: in vivo, po, 0 mg/kg, route gavage, dose level Control; for APTT / Bas / Eos / Fbg / Hb / Ht / Lym / MCH / MCHC / MCV / Mono / Neu / PT / Plat / RBC / Ret / WBC: tissue Blood; for KIDNEY_L / KIDNEY_R / KIDNEY_TOTAL: tissue Kidney; for LIVER: tissue Liver; for A/G / ALP / ALT / AST / BUN / CRE / Ca / Cl / DBIL / GLC / IP / K / LDH / Na / PL / RALB / TBIL / TC / TG / TP / gamma-GTP: tissue Plasma

SMILES: C[C@](N)(Cc1ccc(O)c(O)c1)C(=O)O [METHYLDOPA]
- TERMINAL_BW (72 h, time 3 day): 207.1 g
- APTT (72 h, time 3 day): 15.9 s
- Bas (72 h, time 3 day): 0%
- Eos (72 h, time 3 day): 1.2%
- Fbg (72 h, time 3 day): 258.8 mg/dL
- Hb (72 h, time 3 day): 13.1 g/dL
- Ht (72 h, time 3 day): 38.4%
- Lym (72 h, time 3 day): 72.4%
- MCH (72 h, time 3 day): 21.5 pg
- MCHC (72 h, time 3 day): 34.1%
- MCV (72 h, time 3 day): 63.1 fL
- Mono (72 h, time 3 day): 3.4%
- Neu (72 h, time 3 day): 22.6%
- PT (72 h, time 3 day): 12.6 s
- Plat (72 h, time 3 day): 117.2 x10_4/uL
- RBC (72 h, time 3 day): 609 x10_4/ul
- Ret (72 h, time 3 day): 7.9%
- WBC (72 h, time 3 day): 72.1 x10_2/uL
- KIDNEY_L (72 h, time 3 day): 0.9 g
- KIDNEY_R (72 h, time 3 day): 0.9 g
- KIDNEY_TOTAL (72 h, time 3 day): 1.8 g
- LIVER (72 h, time 3 day): 9.3 g
- A/G (72 h, time 3 day): 0.8
- ALP (72 h, time 3 day): 1855.2 IU/L
- ALT (72 h, time 3 day): 59.4 IU/L
- AST (72 h, time 3 day): 80.2 IU/L
- BUN (72 h, time 3 day): 14 mg/dL
- CRE (72 h, time 3 day): 0.2 mg/dL
- Ca (72 h, time 3 day): 11.1 mg/dL
- Cl (72 h, time 3 day): 106.6 meq/L
- DBIL (72 h, time 3 day): 0.008 mg/dL
- GLC (72 h, time 3 day): 172.8 mg/dL
- IP (72 h, time 3 day): 7.5 mg/dL
- K (72 h, time 3 day): 3.9 meq/L
- LDH (72 h, time 3 day): 52.2 IU/L
- Na (72 h, time 3 day): 144.6 meq/L
- PL (72 h, time 3 day): 129.8 mg/dL
- RALB (72 h, time 3 day): 2.6 g/dL
- TBIL (72 h, time 3 day): 0.056 mg/dL
- TC (72 h, time 3 day): 76.8 mg/dL
- TG (72 h, time 3 day): 61.4 mg/dL
- TP (72 h, time 3 day): 5.6 g/dL
- gamma-GTP (72 h, time 3 day): 1.2 IU/L
- TERMINAL_BW ([…], time 7 day): 238 g
- TERMINAL_BW ([…], time 14 day): 288.8 g
- TERMINAL_BW ([…], time 28 day): 375.3 g
- APTT ([…], time 7 day): 17 s
- Bas ([…], time 7 day): 0%
- Eos ([…], time 7 day): 1.2%
- Fbg ([…], time 7 day): 283.2 mg/dL
- Hb ([…], time 7 day): 13.5 g/dL
- Ht ([…], time 7 day): 39.4%
- Lym ([…], time 7 day): 75%
- MCH ([…], time 7 day): 21 pg
- MCHC ([…], time 7 day): 34.2%
- MCV ([…], time 7 day): 61.4 fL
- Mono ([…], time 7 day): 3%
- Neu ([…], time 7 day): 20.4%
- PT ([…], time 7 day): 12 s
- Plat ([…], time 7 day): 114.7 x10_4/uL
- RBC ([…], time 7 day): 641.2 x10_4/ul
- Ret ([…], time 7 day): 6%
- WBC ([…], time 7 day): 75.9 x10_2/uL
- APTT ([…], time 14 day): 16.9 s
- Bas ([…], time 14 day): 0%
- Eos ([…], time 14 day): 1%
- Fbg ([…], time 14 day): 290.4 mg/dL
- Hb ([…], time 14 day): 13.8 g/dL
- Ht ([…], time 14 day): 39.4%
- Lym ([…], time 14 day): 76%
- MCH ([…], time 14 day): 21.2 pg
- MCHC ([…], time 14 day): 35%
- MCV ([…], time 14 day): 60.4 fL
- Mono ([…], time 14 day): 3.2%
- Neu ([…], time 14 day): 19.6%
- PT ([…], time 14 day): 14.1 s
- Plat ([…], time 14 day): 102.2 x10_4/uL
- RBC ([…], time 14 day): 652 x10_4/ul
- Ret ([…], time 14 day): 4.8%
- WBC ([…], time 14 day): 69.9 x10_2/uL
- APTT ([…], time 28 day): 19.6 s
- Bas ([…], time 28 day): 0%
- Eos ([…], time 28 day): 1.4%
- Fbg ([…], time 28 day): 315.2 mg/dL
- Hb ([…], time 28 day): 15 g/dL
- Ht ([…], time 28 day): 43.3%
- Lym ([…], time 28 day): 74.4%
- MCH ([…], time 28 day): 19.5 pg
- MCHC ([…], time 28 day): 34.8%
- MCV ([…], time 28 day): 56 fL
- Mono ([…], time 28 day): 2.6%
- Neu ([…], time 28 day): 21.4%
- PT ([…], time 28 day): 13.6 s
- Plat ([…], time 28 day): 106 x10_4/uL
- RBC ([…], time 28 day): 774 x10_4/ul
- Ret ([…], time 28 day): 2.7%
- WBC ([…], time 28 day): 74.6 x10_2/uL
- KIDNEY_L ([…], time 7 day): 1 g
- KIDNEY_R ([…], time 7 day): 1 g
- KIDNEY_TOTAL ([…], time 7 day): 2 g
- KIDNEY_L ([…], time 14 day): 1.1 g
- KIDNEY_R ([…], time 14 day): 1.1 g
- KIDNEY_TOTAL ([…], time 14 day): 2.2 g
- KIDNEY_L ([…], time 28 day): 1.3 g
- KIDNEY_R ([…], time 28 day): 1.2 g
- KIDNEY_TOTAL ([…], time 28 day): 2.5 g
- LIVER ([…], time 7 day): 10.9 g
- LIVER ([…], time 14 day): 12.7 g
- LIVER ([…], time 28 day): 15.4 g
- A/G ([…], time 7 day): 0.9
- ALP ([…], time 7 day): 1514 IU/L
- ALT ([…], time 7 day): 46.8 IU/L
- AST ([…], time 7 day): 72 IU/L
- BUN ([…], time 7 day): 15.6 mg/dL
- CRE ([…], time 7 day): 0.2 mg/dL
- Ca ([…], time 7 day): 11 mg/dL
- Cl ([…], time 7 day): 108.6 meq/L
- DBIL ([…], time 7 day): 0.008 mg/dL
- GLC ([…], time 7 day): 178.2 mg/dL
- IP ([…], time 7 day): 6.9 mg/dL
- K ([…], time 7 day): 4.2 meq/L
- LDH ([…], time 7 day): 57.4 IU/L
- Na ([…], time 7 day): 143.8 meq/L
- PL ([…], time 7 day): 140.8 mg/dL
- RALB ([…], time 7 day): 2.7 g/dL
- TBIL ([…], time 7 day): 0.056 mg/dL
- TC ([…], time 7 day): 75.8 mg/dL
- TG ([…], time 7 day): 93.2 mg/dL
- TP ([…], time 7 day): 5.8 g/dL
- gamma-GTP ([…], time 7 day): 1.2 IU/L
- A/G ([…], time 14 day): 0.8
- ALP ([…], time 14 day): 1553 IU/L
- ALT ([…], time 14 day): 45.2 IU/L
- AST ([…], time 14 day): 65.4 IU/L
- BUN ([…], time 14 day): 15.2 mg/dL
- CRE ([…], time 14 day): 0.2 mg/dL
- Ca ([…], time 14 day): 11.3 mg/dL
- Cl ([…], time 14 day): 107 meq/L
- DBIL ([…], time 14 day): 0.01 mg/dL
- GLC ([…], time 14 day): 188.4 mg/dL
- IP ([…], time 14 day): 6.4 mg/dL
- K ([…], time 14 day): 4.5 meq/L
- LDH ([…], time 14 day): 66.2 IU/L
- Na ([…], time 14 day): 142 meq/L
- PL ([…], time 14 day): 151.8 mg/dL
- RALB ([…], time 14 day): 2.7 g/dL
- TBIL ([…], time 14 day): 0.058 mg/dL
- TC ([…], time 14 day): 76 mg/dL
- TG ([…], time 14 day): 140.8 mg/dL
- TP ([…], time 14 day): 6 g/dL
- gamma-GTP ([…], time 14 day): 1 IU/L
- A/G ([…], time 28 day): 0.8
- ALP ([…], time 28 day): 1221.8 IU/L
- ALT ([…], time 28 day): 41.2 IU/L
- AST ([…], time 28 day): 59 IU/L
- BUN ([…], time 28 day): 15.4 mg/dL
- CRE ([…], time 28 day): 0.2 mg/dL
- Ca ([…], time 28 day): 11.2 mg/dL
- Cl ([…], time 28 day): 105.6 meq/L
- DBIL ([…], time 28 day): 0.018 mg/dL
- GLC ([…], time 28 day): 185.4 mg/dL
- IP ([…], time 28 day): 6 mg/dL
- K ([…], time 28 day): 3.9 meq/L
- LDH ([…], time 28 day): 46.2 IU/L
- Na ([…], time 28 day): 142.8 meq/L
- PL ([…], time 28 day): 167.8 mg/dL
- RALB ([…], time 28 day): 2.8 g/dL
- TBIL ([…], time 28 day): 0.06 mg/dL
- TC ([…], time 28 day): 89 mg/dL
- TG ([…], time 28 day): 140.8 mg/dL
- TP ([…], time 28 day): 6.3 g/dL
- gamma-GTP ([…], time 28 day): 1 IU/L
